Key:
ERP44 = test: ER chaperone secretion assay, ERP44; assay type: cell-based, human
Excerpt: (§1) Figure 1. ER retrieval signal abundance and affinity are not correlated. (a) Sequence logos for ER resident proteins with C-terminal KDEL retrieval signals and variants thereof calculated using frequency or protein abundance ([Itzhak et al., 2017]; [Itzhak et al., 2016]). (b) Combined cellular concentrations of ER resident proteins with canonical KDEL, RDEL, and HDEL retrieval sequences in HeLa cells and mouse brain. (c) Competition binding assays for [^3H]-TAEHDEL and unlabelled TAEKDEL, TAERDEL, and TAEHDEL to the KDEL receptor. IC50 values for the competing peptides were used to calculate the apparent KDwith the Cheng-Prusoff equation ([Cheng and Prusoff, 1973]). (d) Endogenous KDEL receptor redistribution was measured in COS-7 cells in the absence (-ligand) or presence of K/R/H/A/DDEL (mScarlet-xDEL^sec). TGN46 was used as a Golgi marker. Scale bar is 10 µm. (e) The mean difference for K/R/H/A/DDEL comparisons against the shared no ligand control are shown as Cummings estimation plots. The individual data points for the fraction of KDEL receptor fluorescence in the Golgi are plotted on the upper axes with sample sizes and p values. Figure 1—source data 1. Source data for the ligand-induced KDELR receptor retrieval assays in Figure 1e. Figure 1—figure supplement 1. Abundance of ER resident proteins and chaperones in human cells and mouse brain. (a) The mean concentration of ER resident chaperones with the indicated ER retrieval sequence variant is plotted in the bar graph ([Itzhak et al., 2017]; [Itzhak et al., 2016]). […] Endogenous ER chaperone secretion was measured by western blotting after challenge with different retrieval signals, and plotted as a bar graph showing mean ± SEM (n = 3). […] (a) Distribution of human KDELR1 and (b) KDELR2 was measured in COS-7 cells in the absence (-ligand) or presence of K/R/H/A/DDEL retrieval signals (K/R/H/A/DDEL^sec). […] The fraction of KDEL receptor localised to the Golgi was measured before (no ligand) and after challenge with different retrieval signals as indicated. […]

PDI = test: ER chaperone secretion assay, PDI; assay type: cell-based, human
Excerpt: as §1

[1] = mean, HeLa S3, 24 hr, Western blot densitometry

In the case of “ADEL [pcDNA3.1 hGHss-mScarlet-H. sapiens BiP639-654K651A (ADEL^SEC), secreted mScarlet fusion with human BiP C-terminus, ADEL signal]”, the “ERP44 secretion after challenge with retrieval signal” value (from here on “ERP44 secretion after challenge”) (ERP44; [1]) is reported as 11.8, the “ERP44 secretion after challenge” value (ERP44; replicate 1) is reported as 8.7 and the “ERP44 secretion after challenge” value (ERP44; replicate 2) is reported as 14.9. The “PDI secretion after challenge with retrieval signal” value (“PDI secretion after challenge” below) (PDI; [1]) was 6.6, the “PDI secretion after challenge” value (PDI; replicate 1) was 7.3 and the “PDI secretion after challenge” value (PDI; replicate 2) was 6.0.

— paper PMC8248988, “A signal capture and proofreading mechanism for the KDEL-receptor explains selectivity and dynamic range in ER retrieval” (eLife, 2021)
